Among the data in patent US20240270762A1, “PENICILLIN-BINDING PROTEIN INHIBITORS” (priority 2021, published 2024) are IC50 and MIC values, retold here.

pIC50: −log10 of the molar value.

In experiment [1] the target is T1, PBP1a from Acinetobacter baumannii (ATCC 19606) (Acinetobacter baumannii, UniProt A0ABX6CK30).
T1 sequence (A0ABX6CK30 1-851): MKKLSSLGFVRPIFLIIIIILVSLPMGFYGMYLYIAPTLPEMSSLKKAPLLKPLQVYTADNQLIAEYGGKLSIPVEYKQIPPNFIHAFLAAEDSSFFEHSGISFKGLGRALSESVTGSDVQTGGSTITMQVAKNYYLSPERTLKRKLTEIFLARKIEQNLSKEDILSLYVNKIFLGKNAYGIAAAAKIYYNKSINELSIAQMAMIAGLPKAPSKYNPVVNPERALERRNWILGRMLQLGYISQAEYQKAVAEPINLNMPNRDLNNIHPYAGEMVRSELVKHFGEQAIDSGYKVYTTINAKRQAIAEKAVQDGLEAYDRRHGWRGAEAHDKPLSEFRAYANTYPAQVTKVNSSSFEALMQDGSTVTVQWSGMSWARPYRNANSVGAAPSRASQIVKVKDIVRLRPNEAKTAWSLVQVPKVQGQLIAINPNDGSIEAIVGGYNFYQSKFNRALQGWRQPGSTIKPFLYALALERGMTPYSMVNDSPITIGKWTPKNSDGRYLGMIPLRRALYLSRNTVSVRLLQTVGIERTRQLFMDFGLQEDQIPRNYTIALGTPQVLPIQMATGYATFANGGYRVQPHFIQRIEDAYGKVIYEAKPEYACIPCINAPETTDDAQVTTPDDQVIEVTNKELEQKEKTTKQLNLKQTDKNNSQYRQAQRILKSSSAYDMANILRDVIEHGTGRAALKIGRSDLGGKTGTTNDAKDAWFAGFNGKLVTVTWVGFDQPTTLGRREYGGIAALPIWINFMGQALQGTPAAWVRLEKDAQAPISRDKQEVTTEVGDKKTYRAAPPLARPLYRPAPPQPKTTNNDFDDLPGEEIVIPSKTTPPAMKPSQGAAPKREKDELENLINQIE
The experiment is described as follows: Bocillin-FL fluorescence polarization competition binding, A. baumannii PBP1a. The note with it: fluorescence polarization competition binding assay using Bocillin-FL; read-out: A. baumannii PBP1a Potency. The source says: To determine the ability of boronic acid-based test PBP inhibitors to bind Penicillin Binding Proteins (PBPs), Bocillin-FL (fluorescently-labeled penicillin V; ThermoFisher Scientific) was used in a fluorescence polarization (FP) competition binding assay to assess inhibitor binding to PBP3 from Escherichia coli (K-12), PBP3 from Pseudomonas aeruginosa (PAO1), PBP1a and PBP3 from Acinetobacter baumannii (ATCC 19606), and PBP2 from Neisseria gonorrhoeae (FA19). PBPs were cloned and purified as described previously (E. coli PBP3, King, D. T, et al., ACS Infectious Diseases 2015, 1, 175-184; P. aeruginosa PBP3, Han et. al., PNAS 2010, 107 (51), 22002-22007; A. baumannii PBPs, Penwell et. al., Antimicrob. Agents Chemother. 2015, 59 (3), 1680-1689; N. gonorrhoeae PBP2, Singh et. al., J. Biol. Chem. 2019, 294 (38), 14020-14032). To establish assay conditions for competition binding, enzyme titration/saturation binding experiments were initially performed. Bocillin-FL was prepared at 0.2 μM in a buffer comprised of 50 mM Hepes (pH 8.0), 300 mM NaCl and 10% (v/v) glycerol for reactions with E. coli, P. aeruginosa and N. gonorrhoeae PBPs, and 25 mM Tris (pH 8.0), 200 mM NaCl, 10% (v/v) glycerol and 0.005% (v/v) Tween 20 for reactions with A. baumannii PBPs. Saturation binding was performed by mixing 40 μl of PBP solutions ranging in concentrations from 0-24 μM with 40 μl of the 0.2 μM Bocillin-FL solution, in individual wells of a black 384-well microplate. FP was measured immediately upon mixing (Excitation, 490 nm; Emission, 520 nm; g-factor, 0.96), using a Cytation3 (BioTek) microplate reader and measured continuously for up to 120 minutes. The FP response stabilized after 15 minutes for P. aeruginosa and A. baumannii PBP3, 30 minutes for E. coli PBP3 and A. baumannii PBP1a, and less than 1 minute for N. gonorrhoeae PBP2. […] The competition binding assay (80 μl final volume) was validated using beta-lactams and PBPs at final concentrations of: 1.5 μM for E. coli PBP3; 0.75 μM for P. aeruginosa PBP3; 1 μM for A. baumannii PBP1a; 0.2 μM for A. baumannii PBP3; and 0.25 μM for N. gonorrhoeae PBP2. Bocillin-FL was at 0.1 μM (0.05 μM with A. baumannii PBP1a) and beta-lactam concentrations ranged from 0-1,000 μM. E. coli PBP3 was incubated with increasing concentrations of ampicillin in a black 384-well microplate (Corning) for 30 minutes. P. aeruginosa PBP3 was incubated for 15 minutes with aztreonam, whereas A. baumannii PBP1a and PBP3 were incubated for 15 minutes with meropenem, and then Bocillin-FL was added followed immediately by the FP measurement for up to 60 minutes. […] The beta-lactam potency was reported as the concentration of beta-lactam required to reduce the amount of PBP bound-Bocillin-FL by 50% (EC50). […] The EC50 of aztreonam was determined to be <0.5 μM for P. aeruginosa PBP3. […] Binding assays for boronic acid PBP inhibitors were performed in an identical fashion for the respective PBPs.

Experiment [2] addresses T2, PBP3 from Acinetobacter baumannii (ATCC 19606) (Acinetobacter baumannii, UniProt A0ABX6CK25).
T2 sequence (A0ABX6CK25 64-610): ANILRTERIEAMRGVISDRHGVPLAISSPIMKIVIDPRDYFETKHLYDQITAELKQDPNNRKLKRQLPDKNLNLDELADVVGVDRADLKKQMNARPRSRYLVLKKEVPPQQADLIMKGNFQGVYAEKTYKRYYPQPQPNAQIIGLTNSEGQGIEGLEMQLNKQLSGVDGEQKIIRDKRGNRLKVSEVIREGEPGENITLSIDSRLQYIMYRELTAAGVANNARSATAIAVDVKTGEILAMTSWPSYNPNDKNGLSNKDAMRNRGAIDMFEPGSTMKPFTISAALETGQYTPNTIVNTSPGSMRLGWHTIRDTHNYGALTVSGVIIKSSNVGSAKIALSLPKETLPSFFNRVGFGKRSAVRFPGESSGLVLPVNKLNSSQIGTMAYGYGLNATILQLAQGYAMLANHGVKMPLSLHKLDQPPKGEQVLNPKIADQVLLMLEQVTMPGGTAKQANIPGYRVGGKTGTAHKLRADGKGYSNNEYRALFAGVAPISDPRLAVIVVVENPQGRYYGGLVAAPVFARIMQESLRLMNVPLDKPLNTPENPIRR
The experiment is described as follows: Bocillin-FL fluorescence polarization competition binding, A. baumannii PBP3. The note with it: fluorescence polarization competition binding assay using Bocillin-FL; read-out: A. baumannii PBP3 Potency. In outline:
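Purified PBPs pre-incubated with inhibitor (E. coli PBP3 1.5 μM, 30 min; P. aeruginosa PBP3 0.75 μM, A. baumannii PBP1a 1 μM and PBP3 0.2 μM, 15 min), then Bocillin-FL 0.1 μM (0.05 μM for PBP1a) added; FP read up to 60 min. EC50 = concentration halving bound Bocillin-FL.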

The subject of a further experiment is P. aeruginosa CDC-0110. Nature of the experiment: microbe, parasite or virus in culture. The note with it: Pseudomonas aeruginosa, CDC0110, read-out: Minimum inhibitory concentration, P. aeruginosa CDC-0110. The class given is cell-based.

On to `CS(=O)(=O)N1CCN(C(=O)NC(C(=O)N[C@H]2Cc3cccc(C(=O)O)c3OB2O)c2ccc(P(=O)(O)O)c(Cl)c2)C1=O` (stereo partly drawn) [Example 11, (3R)-3-(2-(3-chloro-4-phosphonophenyl)-2-(3-(methylsulfonyl)-2-oxoimidazolidine-1-carboxamido)acetamido)-2-hydroxy-3,4-dihydro-2H-benzo[e][1,2]oxaborinine-8-carboxylic acid], for which the results for the pIC50 in experiment [1] and in experiment [2] were 3.60 to 4.30 and greater than 5.00, respectively.
In the same order, the values of `CS(=O)(=O)N1CCN(C(=O)N[C@@H](C(=O)N[C@H]2Cc3ccc(F)c(C(=O)O)c3OB2O)c2ccc(P(=O)(O)O)c(F)c2F)C1=O` [Example 16, (R)-3-((R)-2-(2,3-difluoro-4-phosphonophenyl)-2-(3-(methylsulfonyl)-2-oxoimidazolidine-1-carboxamido)acetamido)-7-fluoro-2-hydroxy-3,4-dihydro-2H-benzo[e][1,2]oxaborinine-8-carboxylic acid] are less than 3.60 and greater than 5.00.
In the same order, the values of `CCN1CCN(C(=O)NC(C(=O)N[C@H]2Cc3cccc(C(=O)O)c3OB2O)c2ccc(CP(=O)(O)O)cc2)C(=O)C1=O` (stereo partly drawn) [Example 20, (3R)-3-(2-(4-ethyl-2,3-dioxopiperazine-1-carboxamido)-2-(4-(phosphonomethyl)phenyl)acetamido)-2-hydroxy-3,4-dihydro-2H-benzo[e][1,2]oxaborinine-8-carboxylic acid] are less than 3.60 and greater than 5.00.
Turning to `O=C(O)c1c(F)ccc2c1OB(O)[C@@H](NC(=O)C(NC(=O)N1CCN(Cc3ccc(O)c(O)c3Cl)C(=O)C1=O)c1ccc(P(=O)(O)O)c(F)c1)C2` (stereo partly drawn) [Example 23, (3R)-3-(2-(4-(2-chloro-3,4-dihydroxybenzyl)-2,3-dioxopiperazine-1-carboxamido)-2-(3-fluoro-4-phosphonophenyl)acetamido)-7-fluoro-2-hydroxy-3,4-dihydro-2H-benzo[e][1,2]oxaborinine-8-carboxylic acid], the figures for the pIC50 in experiment [1] and in experiment [2] were less than 3.60 and greater than 5.00, respectively. In addition, the MIC in the experiment with P. aeruginosa CDC-0110 is less than 1 µg/mL.
For `O=C(O)c1cccc2c1OB(O)[C@@H](NC(=O)C(NC(=O)N1CCN(Cc3ccc(O)c(O)c3Cl)C(=O)C1=O)c1ccc(P(=O)(O)O)cc1)C2` (stereo partly drawn) [Example 24, (3R)-3-(2-(4-(2-chloro-3,4-dihydroxybenzyl)-2,3-dioxopiperazine-1-carboxamido)-2-(4-phosphonophenyl)acetamido)-2-hydroxy-3,4-dihydro-2H-benzo[e][1,2]oxaborinine-8-carboxylic acid], the pIC50 in experiment [1] is less than 3.60; in experiment [2], greater than 5.00. Further, in the experiment on P. aeruginosa CDC-0110, the MIC is less than 1 µg/mL.
In the same order, the values of `O=C(O)c1c(F)ccc2c1OB(O)[C@@H](NC(=O)C(NC(=O)N1CCN(Cc3cc(F)c(O)c(O)c3Cl)C(=O)C1=O)c1ccc(P(=O)(O)O)cc1)C2` (stereo partly drawn) [Example 45, (3R)-3-(2-(4-(2-chloro-5-fluoro-3,4-dihydroxybenzyl)-2,3-dioxopiperazine-1-carboxamido)-2-(4-phosphonophenyl)acetamido)-7-fluoro-2-hydroxy-3,4-dihydro-2H-benzo[e][1,2]oxaborinine-8-carboxylic acid] are less than 3.60, greater than 5.00 and less than 1 µg/mL.
In the same order, the values of `O=C(O)c1c(F)ccc2c1OB(O)[C@@H](NC(=O)C(NC(=O)N1CCN(Cc3ccc(O)c(O)c3Cl)C1=O)c1ccc(P(=O)(O)O)cc1)C2` (stereo partly drawn) [Example 46, (3R)-3-(2-(3-(2-chloro-3,4-dihydroxybenzyl)-2-oxoimidazolidine-1-carboxamido)-2-(4-phosphonophenyl)acetamido)-7-fluoro-2-hydroxy-3,4-dihydro-2H-benzo[e][1,2]oxaborinine-8-carboxylic acid] are less than 3.60, greater than 5.00 and less than 1 µg/mL.
